Assay results as given in paper PMC3747139 (PLoS ONE, 2013).
Values joined by “and” are separate entries in the source; they are usually repeats but may differ in a detail not shown here. Equal entries are not always repeated. Marks after values point to notes of the source that are not given here.

Key:
B16F10 cells [1] = experiment: Flow cytometry Annexin V / PI dot plot; format: cell-based, human; settings: 200 µM L1, 125 µM L2, 50 µM L3, 3 h
Protocol: (§1) Since MTT and cell culture assays yielded encouraging results with B16F10 cells they were used for confocal and flow cytometry experiments. After 90% confluence, the cells were treated with 200 µM, 125 µM and 50 µM of L1, L2, L3 respectively, for 3 h. 1×10^6 cells were washed with 2× binding buffer and resuspended in 100 µl binding buffer and Annexin-V-FITC (1.0 µg). The cells were then incubated at room temperature for 10 min, followed by the addition of 400 µl of binding buffer containing 1 µl of Propidium Iodide (PI). Stained cells were analyzed using FACS Calibur Flow Cytometer from B.D. Biosceinces (USA). Annexin-V-FITC and PI labelled cells were excited using 488 nm solid-state laser and fluorescence emission intensity was captured using 530/30 and 585/42 band pass filters respectively.

telomerase = system: telomerase; design: method as in PMID 10741725; settings: cited from earlier work
QF DNA = experiment: Stop assay (inhibition of in vitro DNA synthesis) with QF DNA; format: biochemical; settings: for ligand concentration range of complete / maximum inhibition of DNA synthesis: 5 µM QF DNA; for percentage of DNA synthesis inhibition with QF DNA: at the respective half maximal inhibitory concentration; for Ki: competitive inhibition against dNTPs, Taq polymerase, read-out: inhibition constant (Ki), Cheng-Prusoff equation
Protocol: (§2) The G-quadruplex structure forming region of QF oligonucleotide is shown in bold letters.
(§3) To the PCR reaction mixture (25 µl) containing 10 mM Tris-HCl, pH 8.3, with 50 mM KCl, 1.5 mM Mg(OAc)2, 5 µM of each oligonucleotide, 1 mM dNTPs, 5 units of Taq polymerase, L1, L2, L3 were added at various concentrations (50 µM, 100 µM, 150 µM, 200 µM), and PCR reactions were performed. PCR mixture without any ligand was considered as control. The primers were 5′ end-labelled with [γ-^32P] ATP using 1 µl of polynucleotide kinase and 5 µl of 10× kinase buffer and the contents were incubated at 37°C for 5 min. Stop assay was performed using an ABI thermal cycler. Initial denaturation was done at 94°C for 3 min, followed by 20 repeated cycles each having 94°C for 30 sec, 58°C for 30 sec, and 72°C for 30 sec. After PCR, 5 µl of the amplified product was loaded on a 12% non-denaturing polyacrylamide gel with 1×TBE. The in vitro DNA synthetic band intensity was measured using Bio Rad Gel Doc XR+system (USA). The band intensity of the PCR product obtained with no ligand was taken as control for all the quadruplex forming DNA samples (QF DNA). Percentage of DNA synthesis inhibition was calculated using equation 1, whereas, inhibition constant, Ki (using Cheng-Prusoff equation) for each ligand was calculated by using equation 2. [drawing 2] (1)

B16F10 cells [2] = experiment: Flow cytometry cell cycle analysis (PI); format: cell-based, human; settings: for cells in G0/G1 phase / cells in G2/M phase / cells in S phase / cells in Sub G1 phase: 200 µM L1, 125 µM L2, 50 µM L3, 3 h
Protocol: as §1

HQF DNA [d(T2AG3)4] = experiment: SYBR Green melting study with HQF DNA; format: binding, human; settings: for Tm of HQF DNA with ligand: 5 µM HQF DNA, 1 µM ligand, HQF DNA alone 27°C; for Tm: melting temperature of HQF DNA (5 µM) in presence of 1 µM ligand
Protocol: (§4) When quadruplex DNA melts to form ssDNA structure, SG fluorescence intensity gradually reduces as SG has no binding to ssDNA. Each time, 5 µM of HQF DNA [d(T2AG3)4)], 5 µM of dsDNA (prepared by mixing equal concentration of poly-dA-dT and poly-dT-dA), 5 µM ssDNA ( poly dT alone) and 1 µM of each ligand was incubated at 4°C for 16 h, and used for melting studies. […] Affinity, stoichiometry and thermodynamic parameters for quadruplex-ligand complex were studied with 60 µM of ligand and 10 µM of HQF DNA using Microcal VP-ITC (Northampton, MA, USA). Ligand addition to G-quadruplex DNA was made every 180 seconds. Titration experiments were performed thrice and blank correction was made each time to minimize error.

[3] = system: telomerase reverse transcriptase (TERT); experiment: Western blot of telomerase expression in tumor tissues; format: in vivo, C57BL6/J mice; settings: tumor tissue of tumor-induced mice, 216 h of treatment
Protocol: Western blot analysis was carried out to study the expression of telomerase in ligand treated as well as untreated tissues of tumor-induced mice. Total proteins were extracted from the tumor tissues into solubilisation buffer (7 M urea, 2 M thiourea, 4% CHAPS, 18 mM Tris–HCl, 14 mM Trizma base, 2 tablets EDTA protease inhibitor, 0.2% Triton-X, 50 mM DTT) following homogenization and sonication. Extracted proteins were quantified against BSA standard using an Amido black assay method. 40 µg of total protein obtained from different time points (48 h, 72 h and 216 h) were electrophoresed on a 10% SDS-PAGE and transferred onto a PVDF membrane using wet-transfer method. Immunoblot analysis of the telomerase reverse transcriptase (TERT) expression was performed using anti-TERT antibody (Pierce, Thermo Scientific) as primary antibody and anti-rabbit HP conjugated secondary antibodies (Pierce, Thermo Scientific). The immuno- blots were scanned using the ECL detection method to estimate the telomerase expression levels in the tissues of tumor-induced mice. The endogenous β-actin expression level was considered as control.

[4] = system: dsDNA (poly-dA-dT and poly-dT-dA); experiment: SYBR Green melting study with dsDNA; format: binding; settings: 5 µM dsDNA, 1 µM ligand; dsDNA alone 24°C
Protocol: as §4

NQF DNA = experiment: Stop assay (inhibition of in vitro DNA synthesis) with NQF DNA; format: biochemical; settings: 5 µM NQF DNA
Protocol: as §2, §3

SMILES | Cells Alive (B16F10 cells [1]) [%] | Early apoptotic (B16F10 cells [1]) [%] | Late apoptotic (B16F10 cells [1]) [%] | Necrotic (B16F10 cells [1]) [%] | Total apoptotic cells (B16F10 cells [1]) [%] | concentration reported to inhibit telomerase (telomerase) | ligand concentration range of complete / maximum inhibition of DNA synthesis (QF DNA) [µM] | percentage of DNA synthesis inhibition with QF DNA (QF DNA) [%] | Ki (QF DNA) [nM] | cells in G0/G1 phase (B16F10 cells [2]) | cells in G2/M phase (B16F10 cells [2]) | cells in S phase (B16F10 cells [2]) | cells in Sub G1 phase (B16F10 cells [2]) | Tm of HQF DNA with ligand (HQF DNA [d(T2AG3)4]) [°C] | Tm (HQF DNA [d(T2AG3)4]) | percentage of reduction of telomerase expression [3] [%] | Tm of dsDNA with ligand [4] [°C] | subG1 cell population enhanced compared to other nucleoside ligands (B16F10 cells [2]; L3 versus L1 and L2) | inhibition of in vitro DNA synthesis with NQF DNA (NQF DNA)
Cc1cn([C@H]2C[C@H](N=[N+]=[N-])[C@@H](CO)O2)c(=O)[nH]c1=O [Ligand L1, 1-(4-azido 5-(hydroxylmethyl)tetrahydrofuran-2-yl)-5-methyl pyrimidi-ne-2,4(1H,3H)-dione, reference compound] | 68.78 | 02.61 | 12.05 | 16.56 | 14.66 | around 200 µM | 150 to 200 | 84 | 2940 | 26.94% | 5.58% and 05.58% | 06.38% | 61.10% | 28 | 28 ^o C | 80 |  |  | 
Cc1cn([C@H]2C[C@H](n3cc(-c4ccccc4)nn3)[C@@H](CO)O2)c(=O)[nH]c1=O [Ligand L2] | 22.88 | 04.82 | 19.07 | 53.23 | 23.89 |  | 150 to 200 | 91 | 1840 | 07.78% | 1.93% and 01.93% | 8.77% and 08.77% | 81.5% and 81.52% | 42 | 42 ^o C | 88 |  |  | 
Cc1cn([C@H]2C[C@H](n3cc(-c4ccc(Cl)cc4)nn3)[C@@H](CO)O2)c(=O)[nH]c1=O [Ligand L3, 1-(4-(4-(4-chlorophenly)-1H-1,2,3-triazole-1-yl)-5-(hydroxymethyl)tetrahydrofuran-2-yl)-5-methylpyrimidine-2,3(1H,3H)-dione] | 17.79 | 20.99 | 60.26 | 00.96 | 81.25 |  | 50 to 100 | 94 | 735 | 4.46% and 04.46% | 0.91% and 00.91% | 5.36% and 05.36% | 89.27% | 52 | 52 ^o C | 95 | 25 | 10–30% | around 33%
